# Target: T1, Dipeptidyl peptidase 3 (Homo sapiens, UniProt Q9NY33)
# T1 sequence (Q9NY33 whole entry): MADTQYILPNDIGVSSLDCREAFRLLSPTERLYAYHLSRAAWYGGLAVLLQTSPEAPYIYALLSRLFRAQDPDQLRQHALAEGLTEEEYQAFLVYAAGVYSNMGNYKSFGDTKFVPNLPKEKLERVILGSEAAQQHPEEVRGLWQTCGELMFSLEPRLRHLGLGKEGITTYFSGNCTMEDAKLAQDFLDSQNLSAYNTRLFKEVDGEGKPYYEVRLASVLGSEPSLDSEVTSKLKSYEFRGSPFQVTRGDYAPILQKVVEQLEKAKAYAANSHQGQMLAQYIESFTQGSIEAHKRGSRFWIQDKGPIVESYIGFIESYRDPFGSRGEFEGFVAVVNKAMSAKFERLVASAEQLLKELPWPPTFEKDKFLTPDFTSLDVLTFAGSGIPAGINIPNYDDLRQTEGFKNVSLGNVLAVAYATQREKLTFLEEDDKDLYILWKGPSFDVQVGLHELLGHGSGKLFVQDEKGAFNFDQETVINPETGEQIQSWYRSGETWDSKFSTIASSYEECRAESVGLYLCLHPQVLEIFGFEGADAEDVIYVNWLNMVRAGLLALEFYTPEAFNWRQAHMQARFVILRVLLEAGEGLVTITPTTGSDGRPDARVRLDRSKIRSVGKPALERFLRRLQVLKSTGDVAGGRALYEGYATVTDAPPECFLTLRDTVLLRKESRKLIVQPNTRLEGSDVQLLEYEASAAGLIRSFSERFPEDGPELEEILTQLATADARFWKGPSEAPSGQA
# Assay: DPP III Enzyme Activity Assay
# Settings: pH 7.4; 37 °C
# Method: The inhibitory activity of flavonoids toward human DPP III was assayed in a 50 mM Tris-HCl buffer, pH 7.4. In brief, recombinant human DPP III (0.29 nM) was preincubated with increasing concentrations of flavonoid first for 1 min at 25°C and then for 3 min at 37°C. The enzymatic reaction was started with Arg-Arg-NA (40 μM) as a substrate, and after the 15 min incubation at 37°C in a water bath, the reaction was stopped and the absorbance was measured using the spectrophotometric method described above[Abramić et al., Biol. Chem. Hoppe-Seyler., 369:29]. The stock solutions of flavonoids were prepared daily in dimethyl sulfoxide (DMSO, Sigma-Aldrich).
row,IC50,Compound
1,32.9 µM,O=c1c(O)c(-c2ccc(O)cc2)oc2cc(O)cc(O)c12
2,85 µM,"O=c1c(O)c(-c2ccc(O)cc2O)oc2cc(O)cc(O)c12 [2-(2,4-dihydroxyphenyl)-3,5,7-trihydroxychromen-4-one]"
3,24.9 µM,"O=c1c(O)c(-c2ccc(O)c(O)c2)oc2cc(O)ccc12 [2-(3,4-dihydroxyphenyl)-3,7-dihydroxy-chromen-4-one]"
4,56.4 µM,"O=c1c(O)c(-c2ccccc2)oc2ccc(O)cc12 [3,6-dihydroxy-2-phenyl-4H-chromen-4-one]"
5,98 µM,"O=c1c(O)c(-c2ccccc2)oc2cc(O)ccc12 [3,7-dihydroxy-2-phenyl-4H-chromen-4-one]"
6,188 µM,O=c1c(O)c(-c2ccccc2)oc2ccccc12 [3-hydroxy-2-phenyl-4H-chromen-4-one]
7,123 µM,"O=c1cc(-c2ccccc2)oc2cc(O)cc(O)c12 [5,7-dihydroxy-2-phenyl-4H-chromen-4-one]"
8,82.2 µM,O=c1cc(-c2ccccc2)oc2ccc(O)cc12 [6-hydroxy-2-phenyl-4H-chromen-4-one]
9,437 µM,O=C1C[C@@H](c2ccccc2)Oc2ccccc21 [Flavanone]
10,36.6 µM,O=c1c(-c2ccc(O)cc2)coc2cc(O)cc(O)c12 [Prunetol]
11,293 µM,O=c1cc(-c2ccccc2)oc2ccccc12 [flavone]
12,23.4 µM,O=c1c(O)c(-c2ccccc2)oc2cc(O)cc(O)c12 [norizalpinin]

row,Compound,IC50
1,"O=c1c(O)c(-c2ccc(O)c(O)c2)oc2cc(O)cc(O)c12 [2-(3,4-dihydroxyphenyl)-3,5,7-trihydroxy-chromone;hydrate]",74.1 µM
2,"O=c1cc(-c2ccc(O)c(O)c2)oc2cc(O)cc(O)c12 [2-(3,4-dihydroxyphenyl)-5,7-dihydroxy-4H-chromen-4-one]",22 µM
3,"O=c1cc(-c2ccc(O)cc2)oc2cc(O)cc(O)c12 [Naringenin, 18]",54 µM
